# Laboratory results: publication PMC9833666, “Designing and identifying β-hairpin peptide macrocycles with antibiotic potential” (Science Advances, 2023)
# Bridge positions count the residues as written; N and C are the ends. Peptide text beside a SMILES is read from it.
# Test system: Escherichia coli W3110
# Assay type: cell-based
# Conditions: E. coli W3110, MH medium
row,SMILES,Ec W3110 MIC MH [mg/L]
1,CC[C@H](C)[C@@H]1NC(=O)[C@H](CC(N)=O)NC(=O)[C@H](C(C)C)NC(=O)[C@H](CCCCN)NC(=O)[C@H]([C@@H](C)CC)NC(=O)[C@H](CCCNC(=N)N)NC(=O)[C@@H](N)CSSC[C@@H](C(=O)O)NC(=O)[C@H](CCC(N)=O)NC(=O)[C@H](CC(C)C)NC(=O)[C@H](CCC(N)=O)NC(=O)[C@H](CC(C)C)NC(=O)[C@H](CCCCN)NC(=O)[C@H](C(C)C)NC(=O)[C@H](CCCNC(=N)N)NC(=O)[C@H](CCCNC(=N)N)NC(=O)[C@H](CCCNC(=N)N)NC(=O)CNC(=O)[C@H](CC(N)=O)NC(=O)[C@H](CC(N)=O)NC1=O [SySA-34] (H-CRIKVNINNGRRRVKLQLQC-OH; disulfide 1-20; N-terminus and C-terminus assumed),128

# Same assay, conditions: E. coli W3110, RPMI medium
row,SMILES,Ec W3110 MIC RPMI [mg/L]
1,CC[C@H](C)[C@@H]1NC(=O)[C@H](CC(N)=O)NC(=O)[C@H](C(C)C)NC(=O)[C@H](CCCCN)NC(=O)[C@H]([C@@H](C)CC)NC(=O)[C@H](CCCNC(=N)N)NC(=O)[C@@H](N)CSSC[C@@H](C(=O)O)NC(=O)[C@H](CCC(N)=O)NC(=O)[C@H](CC(C)C)NC(=O)[C@H](CCC(N)=O)NC(=O)[C@H](CC(C)C)NC(=O)[C@H](CCCCN)NC(=O)[C@H](C(C)C)NC(=O)[C@H](CCCNC(=N)N)NC(=O)[C@H](CCCNC(=N)N)NC(=O)[C@H](CCCNC(=N)N)NC(=O)CNC(=O)[C@H](CC(N)=O)NC(=O)[C@H](CC(N)=O)NC1=O [SySA-34] (H-CRIKVNINNGRRRVKLQLQC-OH; disulfide 1-20; N-terminus and C-terminus assumed),32

# Same assay, conditions: W3110
SMILES,W3110 MIC [mg/L],W3110 MIC MH [mg/L],W3110 MIC RPMI [mg/L]
CC[C@H](C)[C@@H]1NC(=O)[C@H](CCCNC(=N)N)NC(=O)[C@H](C(C)C)NC(=O)[C@H](CCCNC(=N)N)NC(=O)[C@@H](N)CSSC[C@@H](C(=O)O)NC(=O)[C@H](CCC(N)=O)NC(=O)[C@H](C(C)C)NC(=O)[C@H](CCC(N)=O)NC(=O)[C@H](CC(C)C)NC(=O)[C@H](CCCCN)NC(=O)[C@H](CC(C)C)NC(=O)[C@H]([C@@H](C)O)NC(=O)CNC(=O)CNC(=O)[C@H](CCCNC(=N)N)NC(=O)[C@H](CC(N)=O)NC(=O)[C@H](CC(=O)O)NC(=O)[C@H](C(C)C)NC(=O)[C@H](CC(N)=O)NC1=O [SyRC-11] (H-CRVRINVDNRGGTLKLQVQC-OH; disulfide 1-20),>256,–,–
CC[C@H](C)[C@@H]1NC(=O)[C@H](CC(N)=O)NC(=O)[C@H](C(C)C)NC(=O)[C@H](CCCCN)NC(=O)[C@H]([C@@H](C)CC)NC(=O)[C@H](CCCNC(=N)N)NC(=O)[C@@H](N)CSSC[C@@H](C(=O)O)NC(=O)[C@H](CCC(=O)O)NC(=O)[C@H](CC(C)C)NC(=O)[C@H](CCC(=O)O)NC(=O)[C@H](CC(C)C)NC(=O)[C@H](CCCNC(=N)N)NC(=O)[C@H](CC(C)C)NC(=O)[C@H](CCCNC(=N)N)NC(=O)[C@H](CCCNC(=N)N)NC(=O)[C@H](CO)NC(=O)[C@H](CCCNC(=N)N)NC(=O)[C@H](CC(=O)O)NC(=O)[C@H](CC(=O)O)NC1=O [SyRC-8] (H-CRIKVNIDDRSRRLRLELEC-OH; disulfide 1-20),>256,–,–
CC[C@H](C)[C@@H]1NC(=O)[C@H](CCCNC(=N)N)NC(=O)[C@H]([C@@H](C)CC)NC(=O)[C@H](CCCNC(=N)N)NC(=O)[C@@H](N)CSSC[C@@H](C(=O)O)NC(=O)[C@H](CCC(=O)O)NC(=O)[C@H](C(C)C)NC(=O)[C@H](CCC(N)=O)NC(=O)[C@H](CC(C)C)NC(=O)[C@H](CCCNC(=N)N)NC(=O)[C@H](C(C)C)NC(=O)[C@H]([C@@H](C)O)NC(=O)CNC(=O)CNC(=O)CNC(=O)[C@H](CC(N)=O)NC(=O)[C@H](CC(=O)O)NC(=O)[C@H](C(C)C)NC(=O)[C@H](CC(N)=O)NC1=O [SyRC-12] (H-CRIRINVDNGGGTVRLQVEC-OH; disulfide 1-20),>256,–,–
CC[C@H](C)[C@@H]1NC(=O)[C@H](CC(N)=O)NC(=O)[C@H](C(C)C)NC(=O)[C@H](CCCCN)NC(=O)[C@H]([C@@H](C)CC)NC(=O)[C@H](CCCNC(=N)N)NC(=O)[C@@H](N)CSSC[C@@H](C(=O)O)NC(=O)[C@H](CCC(N)=O)NC(=O)[C@H](CC(C)C)NC(=O)[C@H](CCC(N)=O)NC(=O)[C@H](CC(C)C)NC(=O)[C@H](CCCCN)NC(=O)[C@H](C(C)C)NC(=O)[C@H](CCCNC(=N)N)NC(=O)[C@H](CCCNC(=N)N)NC(=O)[C@H](CCCNC(=N)N)NC(=O)CNC(=O)[C@H](CC(N)=O)NC(=O)[C@H](CC(N)=O)NC1=O [SySA-34] (H-CRIKVNINNGRRRVKLQLQC-OH; disulfide 1-20; N-terminus and C-terminus assumed),–,128,32
CC(C)C[C@@H]1NC(=O)[C@H](CCCNC(=N)N)NC(=O)[C@H](C(C)C)NC(=O)[C@H](CCCNC(=N)N)NC(=O)[C@H](CC(C)C)NC(=O)[C@@H](N)CSSC[C@@H](C(=O)O)NC(=O)[C@H](C(C)C)NC(=O)[C@H](CCC(N)=O)NC(=O)[C@H](C(C)C)NC(=O)[C@H](CO)NC(=O)[C@H](C(C)C)NC(=O)[C@H](CCCCN)NC(=O)[C@H](C(C)C)NC(=O)[C@H](CCCNC(=N)N)NC(=O)[C@H](CCCNC(=N)N)NC(=O)CNC(=O)CNC(=O)[C@H](CC(N)=O)NC(=O)[C@H](CC(N)=O)NC1=O [SyRA-3] (H-CLRVRLNNGGRRVKVSVQVC-OH; disulfide 1-20),> 256,–,–

# Test system: Acinetobacter baumannii AB5075
# Conditions: AB5075
# Procedure: MICs were performed by a modifiedClinical and Laboratory Standards Institute) procedure. […] Separately, E. coli W3110 or A. baumannii AB5075 was grown overnight in 5 ml of standard MH at 37°C. Cells from these cultures were diluted to a concentration of 5 × 10^5 to 6 × 10^5 cells/ml in either standard MH, MHII, RPMI, or fetal bovine serum, and 90 μl was added to each well of the 96-well plate containing diluted peptide. Plates were wrapped twice in parafilm and incubated at 37°C for 18 to 24 hours. Wells were examined by eye against wells with no bacteria for signs of growth. MICs were reported as the minimum concentration with no observable growth. In cases where triplicate samples differed, the concentration supported by the median of the three replicates was reported. […]
# For consistency, all SynCH peptides were resuspended at 10 mg/ml in water. Peptides were then visually inspected for any lack of solubility (Data File S1). […]
# We had this library commercially synthesized and tested its ability to inhibit the growth of Acinetobacter baumannii AB5075, a clinically isolated Carbapenem Resistant Acinetobacter (CRA) pathogen. MICs were performed in MH as well as 100% FBS, which is likely more representative of the in vivo environment. […]
SMILES,AB5075 MIC FBS [mg/L],AB5075 MIC MH [mg/L]
CC(C)C[C@@H]1NC(=O)[C@H](CCCNC(=N)N)NC(=O)[C@H](C(C)C)NC(=O)[C@H](CCCCN)NC(=O)[C@H](CCCNC(=N)N)NC(=O)[C@H](CCCNC(=N)N)NC(=O)[C@H](CCCNC(=N)N)NC(=O)[C@H](CCCNC(=N)N)NC(=O)[C@H](CC(C)C)NC(=O)[C@H](CCCNC(=N)N)NC(=O)[C@H](C(C)C)NC(=O)[C@H](CCCNC(=N)N)NC(=O)[C@H](CC(C)C)NC(=O)[C@@H](N)CSSC[C@@H](C(=O)O)NC(=O)[C@H](C(C)C)NC(=O)[C@H](CCC(N)=O)NC1=O [SySA-5.19] (H-CLRVRLRRRRKVRLQVC-OH; disulfide 1-17),> 128,4
CC(C)C[C@@H]1NC(=O)[C@H](CCCNC(=N)N)NC(=O)[C@H](C(C)C)NC(=O)[C@H](CCCNC(=N)N)NC(=O)[C@H](CC(C)C)NC(=O)[C@@H](N)CSSC[C@@H](C(=O)O)NC(=O)[C@H](C(C)C)NC(=O)[C@H](CCCNC(=N)N)NC(=O)[C@H](CC(C)C)NC(=O)[C@H](CCCNC(=N)N)NC(=O)[C@H](C(C)C)NC(=O)[C@H](CCCCN)NC(=O)[C@H](C(C)C)NC(=O)[C@H](CCCNC(=N)N)NC(=O)[C@H](CCCNC(=N)N)NC(=O)[C@H](CCCNC(=N)N)NC(=O)[C@H](CCCNC(=N)N)NC(=O)[C@H](CC(N)=O)NC(=O)[C@H](CCCNC(=N)N)NC1=O [SySA-5.2] (H-CLRVRLRNRRRRVKVRLRVC-OH; disulfide 1-20),> 128,4
CC(C)C[C@@H]1NC(=O)[C@H](CO)NC(=O)[C@H](C(C)C)NC(=O)[C@H](CCCCN)NC(=O)[C@H](CCCNC(=N)N)NC(=O)CNC(=O)[C@H](CCCNC(=N)N)NC(=O)[C@H](CCCNC(=N)N)NC(=O)[C@H](CCCNC(=N)N)NC(=O)[C@H](CC(C)C)NC(=O)[C@H](CCCNC(=N)N)NC(=O)[C@H](C(C)C)NC(=O)[C@H](CCCNC(=N)N)NC(=O)[C@@H](N)CSSC[C@@H](C(=O)O)NC(=O)[C@H](CCCNC(=N)N)NC1=O [SySA-5.24] (H-CRVRLRRRGRKVSLRC-OH; disulfide 1-16),> 128,16
CC(C)C[C@@H]1NC(=O)[C@H](CO)NC(=O)[C@H](C(C)C)NC(=O)[C@H](CCCCN)NC(=O)[C@H](C(C)C)NC(=O)[C@H](CCCNC(=N)N)NC(=O)CNC(=O)[C@H](CCCNC(=N)N)NC(=O)[C@H](CCCNC(=N)N)NC(=O)[C@H](CC(N)=O)NC(=O)[C@H](CCCNC(=N)N)NC(=O)[C@H](CC(C)C)NC(=O)[C@H](CCCNC(=N)N)NC(=O)[C@H](C(C)C)NC(=O)[C@H](CCCNC(=N)N)NC(=O)[C@@H](N)CSSC[C@@H](C(=O)O)NC(=O)[C@H](CCCNC(=N)N)NC1=O [SySA-5.6] (H-CRVRLRNRRGRVKVSLRC-OH; disulfide 1-18),128,4
CC(C)C[C@@H]1NC(=O)[C@H](CO)NC(=O)[C@H](C(C)C)NC(=O)[C@H](CCCCN)NC(=O)[C@H](C(C)C)NC(=O)[C@H](CCCNC(=N)N)NC(=O)CNC(=O)[C@H](CCCNC(=N)N)NC(=O)[C@H](CCCNC(=N)N)NC(=O)[C@H](CC(N)=O)NC(=O)[C@H](CC(N)=O)NC(=O)[C@H](CC(C)C)NC(=O)[C@H](CCCNC(=N)N)NC(=O)[C@H](C(C)C)NC(=O)[C@H](CCCNC(=N)N)NC(=O)[C@@H](N)CSSC[C@@H](C(=O)O)NC(=O)[C@H](CCC(N)=O)NC1=O [SySA-5.5] (H-CRVRLNNRRGRVKVSLQC-OH; disulfide 1-18),> 128,8
CC(C)C[C@@H]1NC(=O)[C@H](CO)NC(=O)[C@H](C(C)C)NC(=O)[C@H](CCCCN)NC(=O)[C@H](CCCNC(=N)N)NC(=O)CNC(=O)[C@H](CCCNC(=N)N)NC(=O)[C@H](CCCNC(=N)N)NC(=O)[C@H](CC(N)=O)NC(=O)[C@H](CC(C)C)NC(=O)[C@H](CCCNC(=N)N)NC(=O)[C@H](C(C)C)NC(=O)[C@H](CCCNC(=N)N)NC(=O)[C@H](CC(C)C)NC(=O)[C@@H](N)CSSC[C@@H](C(=O)O)NC(=O)[C@H](C(C)C)NC(=O)[C@H](CCC(N)=O)NC1=O [SySA-5.10] (H-CLRVRLNRRGRKVSLQVC-OH; disulfide 1-18),128,4
CC(C)C[C@@H]1NC(=O)[C@H](CCCNC(=N)N)NC(=O)[C@H](C(C)C)NC(=O)[C@H](CCCCN)NC(=O)[C@H](CCCNC(=N)N)NC(=O)CNC(=O)[C@H](CCCNC(=N)N)NC(=O)[C@H](CCCNC(=N)N)NC(=O)[C@H](CCCNC(=N)N)NC(=O)[C@H](CC(C)C)NC(=O)[C@H](CCCNC(=N)N)NC(=O)[C@H](C(C)C)NC(=O)[C@H](CCCNC(=N)N)NC(=O)[C@H](CC(C)C)NC(=O)[C@@H](N)CSSC[C@@H](C(=O)O)NC(=O)[C@H](C(C)C)NC(=O)[C@H](CCC(N)=O)NC1=O [SySA-5.11] (H-CLRVRLRRRGRKVRLQVC-OH; disulfide 1-18),64,4
CC(C)C[C@@H]1NC(=O)[C@H](CCCNC(=N)N)NC(=O)[C@H](C(C)C)NC(=O)[C@H](CCCNC(=N)N)NC(=O)[C@H](CC(C)C)NC(=O)[C@@H](N)CSSC[C@@H](C(=O)O)NC(=O)[C@H](C(C)C)NC(=O)[C@H](CCCNC(=N)N)NC(=O)[C@H](CC(C)C)NC(=O)[C@H](CO)NC(=O)[C@H](C(C)C)NC(=O)[C@H](CCCCN)NC(=O)[C@H](C(C)C)NC(=O)[C@H](CCCNC(=N)N)NC(=O)CNC(=O)[C@H](CCCNC(=N)N)NC(=O)[C@H](CCCNC(=N)N)NC(=O)[C@H](CC(N)=O)NC(=O)[C@H](CCCNC(=N)N)NC1=O [SySA-5.1] (H-CLRVRLRNRRGRVKVSLRVC-OH; disulfide 1-20),128,8
